Source: patent US12173137B2, “Functionalized high-oleic soybean oil wax and emulsion for post-harvest treatment of fresh fruit” (Iowa State University Research Foundation, Inc., priority 2020, dated 2024)
Marks after values point to notes of the source that are not given here.

How the values were obtained:
Type in all cases: physicochemical
[1] = Differential scanning calorimetry of wax materials; conditions: for Relative Crystallinity: 290 J/g for a 100% crystalline material; for Enthalpy of Melting: DSC, heating to 100° C. at 10° C./min
Experimental: Melting profile of wax materials was analyzed with a DSC 250 Discovery (TA Instruments, New Castle, Del.) calorimeter using the methodology by Donhowe and Fennema (1993). Wax samples (approximately 10 mg) were first heated to 100° C. at a rate of 200° C./min, held for 3 min, cooled to 25° C. at a rate of 20° C./min and equilibrated for 3 min. Actual test ramp was then performed by heating to 100° C. at a rate of 10° C./min. Melting point ranges were calculated from the average of three samples from each material.

[2] = Cohesiveness of wax materials (three-point bend test); conditions: area under curve to peak force, 4 mm-thick cast sample
Experimental: (§1) Hardness, defined as a measure of resistance to local deformation, was measured using a H-1200 Universal Penetrometer (Humboldt Mfg. Co., Raleigh, NC) following ASTM D1321 standard. Ten grams of molten material were cast in a 5 cm diameter by 3 cm tall hollow polyvinyl chloride plastic mold. Material was allowed to fully cool and equilibrate to room temperature for at least 6 hours prior to testing. The distance traveled by penetrometer needle (mm) into the wax disc was recorded as the hardness (mm^−1) after taking the reciprocal value. Cohesiveness, defined as the strength of a material due to interatomic or intermolecular forces, was measured as per previous methodology (Fei et al., “Synthesis and Characterization of Soybean Oil-Based Waxes and Their Application as Paraffin Substitute for Corrugated Coating,” J. Ind. Eng. Chem. 58:113-122 (2018), which is hereby incorporated by reference in its entirety) by a three-point bend test using a TA.XTPlus Texture Analyzer (Stable Micro Systems, So. Hamilton, MA) with a TA-92N probe on a 4 mm-thick cast wax sample, made by casting 2.2-2.8 g of molten material in a small hexagonal weighing boat, and allowing samples to cool to r.t. for at least 2 hours. Hexagonal samples were then sanded down flat to a uniform mass with a fine grit sanding sponge taking care to remove concave and convex regions. Test was performed by placing sample between two vertical support bars 12 mm apart and driving the blunt blade normal to the sample at 0.5 mm/s to a trigger distance of 3 mm. The area under curve was acquired from a distance at 0 mm to the peak positive force, and the average of three tests for each material was recorded as the cohesiveness (g mm) of the material.

[3] = Hardness of wax materials (penetrometer, ASTM D1321); conditions: reciprocal of needle penetration distance, room temperature
Experimental: as §1

Compound: CCCCCCC(=O)CCCCCCCCCCC(=O)OCC(COC(=O)CCCCCCCCCCC(=O)CCCCCC)OC(=O)CCCCCCCCCCC(=O)CCCCCC [Compound 8, Propane-1,2,3-triyl tris(12-oxooctadecanoate)]
- Relative Crystallinity [1]: 43.7 ± 0.7^ %
- Enthalpy of Melting [1]: 126.8 ± 2.0 J/g
- Cohesiveness [2]: 203 ± 49 g mm
- Hardness [3]: 0.50 ± 0.09 mm^−1

Compound: CCCCCCC(=O)CCCCCCCCCCC(=O)O [Compound 7, 12-Oxooctadecanoic Acid]
- Relative Crystallinity [1]: 42.8 ± 10.1%
- Enthalpy of Melting [1]: 124.3 ± 29.4 J/g
- Cohesiveness [2]: 360 ± 34 g mm
- Hardness [3]: 0.63 ± 0.08 mm^−1

Compound: Mixture of 9-Hydroxyoctadecanoic (4a) and 10-Hydroxyoctadecanoic Acid (4b) [Compound 4a-b]
- Relative Crystallinity [1]: 6.3 ± 0.4^f %
- Enthalpy of Melting [1]: 18.3 ± 0.1 J/g
- Cohesiveness [2]: 95 ± 1 g mm
- Hardness [3]: 0.30 ± 0.02^e mm^−1

Compound: CCCCCC[C@@H](O)CCCCCCCCCCC(=O)O [Compound 6, (R)-12-hydroxyoctadecanoic acid, reference compound]
- Relative Crystallinity [1]: 51.2 ± 1.0^ab %
- Enthalpy of Melting [1]: 148.4 ± 3.1 J/g
- Cohesiveness [2]: 1443 ± 30^c g mm
- Hardness [3]: 2.22 ± 0.04^c mm^−1

Compound: Triacylglyceride of Regioisomeric Hydroxyoctadecanoic Acid [Compound 3]
- Relative Crystallinity [1]: 12.9 ± 1.5^ef %
- Enthalpy of Melting [1]: 37.3 ± 4.3 J/g
- Cohesiveness [2]: 113 ± 13 g mm
- Hardness [3]: 0.68 ± 0.05 mm^−1
